The text below walks through data of ChEMBL document CHEMBL1201862, “PubChem BioAssay data set” (2004).

Test systems include OVCAR-8; SNB-78; CCRF-CEM; DLD-1; A498; UACC-62; IGROV-1; M19-MEL; MCF7; HOP-18; DMS-114; U-251.
Assay in all cases: growth of human tumour cells (NCI), 48 h

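Five compound concentrations were applied to cells in 96-well plates for 48 hours; endpoints were derived by simple linear interpolation of the resulting dose-response curve. GI50 marks 50% less growth.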 Active and inactive are the calls of the source. No stated cut-off is given here; in the data, active = GI50 up to about 1.1 µM and inactive = higher. Some results are limits rather than exact numbers.

For `COC(=O)c1cccc(N[C@@H]2c3cc4c(cc3C(c3cc(OC)c(O)c(OC)c3)[C@H]3C(=O)OCC32)OCO4)c1` (some centres undefined), the GI50 in the assay on OVCAR-8 was 1.73 µM (inactive); in the assay on SNB-78 it was 3.67 µM (inactive); in the assay with CCRF-CEM, 0.248 µM (active); in the assay with DLD-1, 1.89 µM (inactive); in the assay with A498, 0.635 µM (active); with UACC-62, 0.729 µM (active). The GI50 in the assay with IGROV-1 is 3.13 µM (inactive); in the assay with M19-MEL, 1.28 µM (inactive); in the assay with MCF7 it was 0.442 µM (active); in the assay with HOP-18, 2.62 µM (inactive); with DMS-114, 0.568 µM (active); in the assay on U-251, 1.05 µM (active).
`CC(C)[C@](O)(C(=O)OCC1=CCN2CC[C@@H](O)[C@@H]12)[C@H](C)O`: the GI50 with OVCAR-8, in the assay with SNB-78, in the assay on CCRF-CEM, in the assay with DLD-1, in the assay with A498 and in the assay with UACC-62 was > 375 µM (inactive) throughout. For the same compound, the GI50 in the assay on IGROV-1 is > 308 µM (inactive); with M19-MEL, > 255 µM (inactive); in the assay on MCF7, > 375 µM (inactive); with HOP-18, > 375 µM (inactive); with DMS-114 it was 368 µM (inactive); in the assay with U-251, > 375 µM (inactive).
